Test: isobaric coefficient of expansion
Settings: Liquid, DSC with Pressure Shift

CCCCCCCCCCO [decan-1-ol]
isobaric coefficient of expansion
Settings | 298.15 K | 308.15 K | 318.15 K | 328.15 K | 338.15 K | 348.15 K
5000 kPa | 0.000809 1/K | 0.000822 1/K | 0.000837 1/K | 0.00085 1/K | 0.000869 1/K | 0.000895 1/K
10000 kPa | 0.000792 1/K | 0.0008 1/K | 0.000814 1/K | 0.000827 1/K | 0.000843 1/K | 0.000863 1/K
15000 kPa | 0.000776 1/K | 0.000784 1/K | 0.000795 1/K | 0.000803 1/K | 0.000819 1/K | 0.000832 1/K
20000 kPa | 0.000755 1/K | 0.000764 1/K | 0.000775 1/K | 0.000781 1/K | 0.000799 1/K | 0.000812 1/K
25000 kPa | 0.000739 1/K | 0.000748 1/K | 0.000758 1/K | 0.000765 1/K | 0.000779 1/K | 0.000792 1/K
30000 kPa | 0.000725 1/K | 0.00073 1/K | 0.000743 1/K | 0.000748 1/K | 0.00076 1/K | 0.000775 1/K
35000 kPa | 0.000715 1/K | 0.000719 1/K | 0.000726 1/K | 0.000732 1/K | 0.000745 1/K | 0.000755 1/K
40000 kPa | 0.000702 1/K | 0.000706 1/K | 0.000711 1/K | 0.000719 1/K | 0.000729 1/K | 0.000738 1/K
45000 kPa | 0.00069 1/K | 0.00069 1/K | 0.000699 1/K | 0.000704 1/K | 0.000713 1/K | 0.000722 1/K
50000 kPa | 0.000679 1/K | 0.00068 1/K | 0.000688 1/K | 0.000691 1/K | 0.000701 1/K | 0.000708 1/K
55000 kPa | 0.000669 1/K | 0.000669 1/K | 0.000676 1/K | 0.000679 1/K | 0.000689 1/K | 0.000697 1/K

CCCO [propan-1-ol]
isobaric coefficient of expansion
Settings | 278.15 K | 288.15 K | 298.15 K | 308.15 K | 318.15 K | 328.15 K | 338.15 K | 348.15 K
5000 kPa | 0.000927 1/K | 0.000947 1/K | 0.000967 1/K | 0.001 1/K | 0.00104 1/K | 0.00107 1/K | 0.00111 1/K | 0.00116 1/K
10000 kPa | 0.000901 1/K | 0.000923 1/K | 0.000943 1/K | 0.000975 1/K | 0.001 1/K | 0.00104 1/K | 0.00108 1/K | 0.00112 1/K
15000 kPa | 0.000883 1/K | 0.000902 1/K | 0.00092 1/K | 0.000948 1/K | 0.000976 1/K | 0.00101 1/K | 0.00104 1/K | 0.00108 1/K
20000 kPa | 0.000868 1/K | 0.000884 1/K | 0.000899 1/K | 0.000925 1/K | 0.000947 1/K | 0.000975 1/K | 0.00101 1/K | 0.00105 1/K
25000 kPa | 0.00085 1/K | 0.000867 1/K | 0.000877 1/K | 0.0009 1/K | 0.000922 1/K | 0.00095 1/K | 0.000977 1/K | 0.00101 1/K
30000 kPa | 0.000834 1/K | 0.000848 1/K | 0.000858 1/K | 0.000882 1/K | 0.000899 1/K | 0.000923 1/K | 0.000951 1/K | 0.000984 1/K
35000 kPa | 0.000818 1/K | 0.00083 1/K | 0.000843 1/K | 0.000859 1/K | 0.00088 1/K | 0.000901 1/K | 0.000926 1/K | 0.000958 1/K
40000 kPa | 0.000803 1/K | 0.000816 1/K | 0.000822 1/K | 0.000844 1/K | 0.000854 1/K | 0.000878 1/K | 0.000899 1/K | 0.000927 1/K
45000 kPa | 0.00079 1/K | 0.000801 1/K | 0.000811 1/K | 0.000824 1/K | 0.000839 1/K | 0.000858 1/K | 0.000881 1/K | 0.000906 1/K
50000 kPa | 0.000777 1/K | 0.000786 1/K | 0.000795 1/K | 0.000809 1/K | 0.000822 1/K | 0.000838 1/K | 0.000862 1/K | 0.000885 1/K
55000 kPa | 0.000767 1/K | 0.000775 1/K | 0.000781 1/K | 0.000794 1/K | 0.000806 1/K | 0.000821 1/K | 0.000837 1/K | 0.000861 1/K

CCC(O)CC [3-pentanol]
isobaric coefficient of expansion
Settings | 278.15 K | 288.15 K | 298.15 K | 308.15 K | 318.15 K | 328.15 K | 338.15 K | 348.15 K
5000 kPa | 0.000898 1/K | 0.000935 1/K | 0.000971 1/K | 0.00101 1/K | 0.00106 1/K | 0.00109 1/K | 0.00115 1/K | 0.0012 1/K
10000 kPa | 0.000875 1/K | 0.000916 1/K | 0.000952 1/K | 0.00099 1/K | 0.00103 1/K | 0.00107 1/K | 0.00113 1/K | 0.00117 1/K
15000 kPa | 0.000861 1/K | 0.000898 1/K | 0.000935 1/K | 0.00097 1/K | 0.00101 1/K | 0.00104 1/K | 0.0011 1/K | 0.00113 1/K
20000 kPa | 0.00085 1/K | 0.000882 1/K | 0.000917 1/K | 0.000953 1/K | 0.000989 1/K | 0.00103 1/K | 0.00107 1/K | 0.00111 1/K
25000 kPa | 0.000826 1/K | 0.000868 1/K | 0.000899 1/K | 0.000934 1/K | 0.00097 1/K | 0.00101 1/K | 0.00105 1/K | 0.00108 1/K
30000 kPa | 0.000814 1/K | 0.00085 1/K | 0.00088 1/K | 0.000919 1/K | 0.000952 1/K | 0.000983 1/K | 0.00102 1/K | 0.00106 1/K
35000 kPa | 0.000802 1/K | 0.000837 1/K | 0.000866 1/K | 0.000899 1/K | 0.000932 1/K | 0.000965 1/K | 0.001 1/K | 0.00103 1/K
40000 kPa | 0.000799 1/K | 0.000823 1/K | 0.000852 1/K | 0.000888 1/K | 0.000914 1/K | 0.000949 1/K | 0.000976 1/K | 0.00101 1/K
45000 kPa | 0.000766 1/K | 0.000807 1/K | 0.000839 1/K | 0.000869 1/K | 0.000897 1/K | 0.00093 1/K | 0.000953 1/K | 0.000986 1/K
50000 kPa | 0.000769 1/K | 0.000792 1/K | 0.000822 1/K | 0.000852 1/K | 0.000879 1/K | 0.000907 1/K | 0.000931 1/K | 0.00096 1/K
55000 kPa | 0.000743 1/K | 0.000771 1/K | 0.000806 1/K | 0.000837 1/K | 0.000862 1/K | 0.000887 1/K | 0.00091 1/K | 0.000936 1/K

From the NIST ThermoML archive (doi:10.1016/j.jct.2009.07.002)
